Values of other authors in patent US4868157A, “Dipeptidyl 2-amino-1,2-dideoxy-D-glucose derivatives as host resistance enhancers in AIDS-immunocompromised hosts and methods of use” (priority 1987, dated 1989).

What was measured:
[1] = tested on: AIDS-related virus; conditions: for symptoms and/or immune function in patients: ARC or AIDS patients, clinical trials; for viral replication in patients: humans / AIDS patients
[2] = tested on: HIV
[3] = tested on: AIDS-related Kaposi's sarcoma; conditions: AIDS-related Kaposi's sarcoma cases
[4] = tested on: Mycobacterium aviumintracellulare
[5] = biological target: HIV reverse transcriptase (Human immunodeficiency virus type 1 group M subtype B, UniProt P04585)

CC(C)(N1CC1C#N)N1CC1C(N)=O (stereo not drawn) [Azimexon]
symptoms and/or immune function in patients [1]: improvements in symptoms and immune function in patients with ARC but not AIDS

α-Interferon
growth of HIV in vitro [2]: Checks the growth of HIV in vitro | tumor regression [3]: induced tumor regression in some AIDS-related Kaposi's sarcoma cases

CO[C@H]1/C=C/O[C@@]2(C)Oc3c(C)c(O)c4c(c3C2=O)C2=NC3(CCN(CC(C)C)CC3)NC2=C(NC(=O)/C(C)=C\C=C\[C@H](C)[C@H](O)[C@@H](C)[C@@H](O)[C@@H](C)[C@H](OC(C)=O)[C@@H]1C)C4=O [Ansamycin, rifabutin]
efficacy in AIDS patients with opportunistic Mycobacterium aviumintracellulare infection [4]: some efficacy

NC(=O)c1ncn([C@@H]2O[C@H](CO)[C@@H](O)[C@H]2O)n1 [Ribavirin, 1-β-D-ribofuranosyl-1,2,4-triazole-3-carboxamide]
tolerability (24-week trial in 373 ARC patients, at 12 weeks): well tolerated | safety profile (human, in vivo): acceptable | symptoms and/or immune function in patients [1]: improved immune function | viral replication in patients [1]: inhibited viral replication

CC(=O)Nc1ccc(C(=O)O)cc1.CC(=O)Nc1ccc(C(=O)O)cc1.CC(=O)Nc1ccc(C(=O)O)cc1.CC(O)CN(C)C.CC(O)CN(C)C.CC(O)CN(C)C.O=c1[nH]cnc2c1ncn2[C@@H]1O[C@H](CO)[C@@H](O)[C@H]1O [Inosine pranobex, p-Acetamidobenzoic acid salt of (1-dimethylamino-2-propanol:inosinate complex 3:3:1 molar ratio)]
symptoms and/or immune function in patients [1]: improve immune function

ammonium 21-tungsto-9-antimoniate [HPA-23]
therapeutic benefit / clinical improvement in AIDS patients [1]: no therapeutic benefit has been documented

CC(C)(S)[C@@H](N)C(=O)O [D-Penicillamine, 3-mercapto-D-valine]
T cell levels ([1]; human, in vivo): temporarily depressed T cell levels | viral replication in patients [1]: Inhibits HIV reproduction in humans | effect on the virus ([1]; trials at George Washington University Medical Center, 13 AIDS patients with perpetually swollen glands): suppressed the virus

O=C(O)P(=O)(O)O [Foscarnet, trisodium phosphonoformate]
inhibition of HIV reverse transcriptase [5]: Inhibits HIV reverse transcriptase activity in vitro at levels pharmacologically acceptable in vivo

Cc1ccc(C(=O)Nc2ccc(S(=O)(=O)O)c3cc(S(=O)(=O)O)cc(S(=O)(=O)O)c23)cc1NC(=O)c1cccc(NC(=O)Nc2cccc(C(=O)Nc3cc(C(=O)Nc4ccc(S(=O)(=O)O)c5cc(S(=O)(=O)O)cc(S(=O)(=O)O)c45)ccc3C)c2)c1 [Suramin]
therapeutic benefit / clinical improvement in AIDS patients [1]: little or no evidence of clinical improvement or immunologic recovery
